Laboratory results taken from patent US11939354B1, “Fusion peptide inhibitors of human coronavirus 229E” (KING FAISAL UNIVERSITY, priority 2023, dated 2024).
Ends that are not written are not given here.

Legend:
HCoV-229E = conditions: 24 h
[1] = Cytotoxicity (CC50) of tested peptides; conditions: African green monkey, Vero E6 cells
[2] = target: HCoV-229E spike (S) protein (human coronavirus 229E, UniProt P15423); assay: cell-based or functional assay

Row | Molecule | IC50 (HCoV-229E) | Selectivity Index (HCoV-229E) | CC50 [1] | IC50, plaque reduction test against HCoV-229E [2]
1 | CC[C@H](C)[C@H](NC(=O)CNC(=O)[C@H](CO)NC(=O)[C@@H](NC(=O)[C@H](CC(=O)O)NC(=O)CNC(=O)[C@H](CC(C)C)NC(=O)[C@@H](NC(=O)[C@@H](N)Cc1c[nH]cn1)C(C)C)[C@@H](C)CC)C(=O)N[C@@H](CC(N)=O)C(=O)N[C@@H](C)C(=O)N[C@@H](CO)C(=O)N[C@H](C(=O)N[C@H](C(=O)N[C@@H](CCC(N)=O)C(=O)N[C@H](C(=O)N[C@@H](CCC(N)=O)C(=O)N[C@@H](CCCCN)C(=O)N[C@@H](CCC(=O)O)C(=O)N[C@H](C(=O)N[C@@H](CC(=O)O)C(=O)N[C@@H](CCCNC(=N)N)C(=O)N[C@@H](CC(C)C)C(=O)N[C@@H](CC(N)=O)C(=O)N[C@@H](CCC(=O)O)C(=O)N[C@H](C(=O)N[C@@H](C)C(=O)N[C@@H](CCCCN)C(=O)N[C@@H](CC(N)=O)C(=O)N[C@@H](CC(C)C)C(=O)N[C@@H](Cc1c[nH]cn1)C(=O)N[C@@H](CCC(=O)O)C(=O)N[C@@H](CO)C(=O)N[C@@H](CC(C)C)C(=O)N[C@H](C(=O)N[C@@H](Cc1ccc(O)cc1)C(=O)N[C@@H](CC(C)C)C(=O)N[C@@H](CCC(N)=O)C(=O)N[C@@H](CCC(=O)O)C(=O)O)[C@@H](C)CC)C(C)C)[C@@H](C)CC)[C@@H](C)CC)C(C)C)C(C)C [Peptide 121] | 14.2 µM | 13.06 | 251 µM | 
2 | HRLRQIRGIRARVVQIQKEIWRLNEVAKLLNESLIYLQE [Peptide 125] | 14.5 µM | 17.56 | 255 µM | 
3 | HRLRQIRGIRARVVQIQKEIWRLNEVAKLLNESLIYLQE [Peptide 125] |  |  |  | 14.5 µM
4 | HVLGDISGINASVVQIQKEIDRLNEVAKNLHESLIYLQE [Peptide 121] |  |  |  | 14.2 µM
